Results from ChEMBL document CHEMBL5356940, “The rational design of ARUK2007145, a dual inhibitor of the α and γ isoforms of the lipid kinase phosphatidylinositol 5-phosphate 4-kinase (PI5P4K)” (RSC Med Chem, 2023).

How the values were obtained:
[1] = molecular target: Phosphatidylinositol 5-phosphate 4-kinase type-2 gamma (Homo sapiens, UniProt Q8TBX8)
Description: Inhibition of GST-fused human recombinant chimeric PI5P4Kgamma+ harboring PI5P4Kalpha-like mutations expressed in Escherichia coli BL21(DE3) incubated for 60 mins by ADP-Glo assay

[2] = molecular target: T1, Phosphatidylinositol 5-phosphate 4-kinase type-2 beta (Homo sapiens, UniProt P78356); experiment: Inhibition of GST-fused human recombinant PI5P4Kbeta expressed in Escherichia coli BL21(DE3) incubated for 60 mins by ADP-Glo assay
T1 sequence (P78356 whole entry): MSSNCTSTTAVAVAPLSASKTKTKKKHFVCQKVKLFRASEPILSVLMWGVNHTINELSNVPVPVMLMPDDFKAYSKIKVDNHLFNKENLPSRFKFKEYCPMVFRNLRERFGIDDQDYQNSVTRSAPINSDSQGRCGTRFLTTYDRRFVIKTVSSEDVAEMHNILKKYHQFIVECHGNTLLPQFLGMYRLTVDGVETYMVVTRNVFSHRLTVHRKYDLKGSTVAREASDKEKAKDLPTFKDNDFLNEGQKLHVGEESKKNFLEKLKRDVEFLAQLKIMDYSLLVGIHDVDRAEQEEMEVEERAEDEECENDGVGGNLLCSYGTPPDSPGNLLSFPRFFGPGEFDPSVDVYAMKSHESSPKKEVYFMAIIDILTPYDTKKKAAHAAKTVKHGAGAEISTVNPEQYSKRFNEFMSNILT

[3] = Apparent permeability across apical to basolateral side in dog MDCK-MDR1 cells; format: ADME, cell-based, Canis lupus familiaris

Chain of Phosphatidylinositol 5-phosphate 4-kinase type-2 gamma (Q8TBX8 2-421 limits assumed, stated change not applied): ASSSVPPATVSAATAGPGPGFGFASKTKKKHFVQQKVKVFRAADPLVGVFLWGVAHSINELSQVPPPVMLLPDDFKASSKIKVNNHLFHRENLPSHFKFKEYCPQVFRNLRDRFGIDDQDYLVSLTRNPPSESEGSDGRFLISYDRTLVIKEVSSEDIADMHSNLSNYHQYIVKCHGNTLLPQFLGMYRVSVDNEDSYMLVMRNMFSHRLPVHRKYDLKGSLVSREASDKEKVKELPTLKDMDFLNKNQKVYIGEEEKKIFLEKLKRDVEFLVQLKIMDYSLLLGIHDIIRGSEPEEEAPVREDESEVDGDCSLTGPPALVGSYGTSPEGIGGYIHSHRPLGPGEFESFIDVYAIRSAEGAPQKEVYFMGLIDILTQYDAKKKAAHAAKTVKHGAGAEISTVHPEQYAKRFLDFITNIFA

| pIC50 [1] | IC50 [2] | Papp A→B [3] | Structure (SMILES) |
| --- | --- | --- | --- |
| 6.3 | – | – | Cc1ncccc1-c1cc2ncnc(Nc3ccc4ncoc4c3)c2s1 |
| 7.3 | – | – | CSc1ccc(Nc2ncnc3sc(-c4cccnc4C)cc23)cc1 |
| 6.4 | – | – | CCc1ccc(Nc2ncnc3sc(-c4cccnc4C)cc23)cc1 |
| 7.7 | – | 3.7 ×10⁻⁶ cm/s | CSc1ccc(Nc2ncnc3sc(-c4ccncc4C)cc23)cc1 |
| 5.8 | – | – | Cc1ccc(Nc2ncnc3sc(-c4cccnc4C)cc23)cc1 |
| 8.1 | – | 12.9 ×10⁻⁶ cm/s | CSc1ccc(Nc2ncnc3cc(-c4cccnc4Cl)sc23)cc1 |
| 7.7 | – | – | CSc1ccc(Nc2ncnc3sc(-c4cccnc4Cl)cc23)cc1 |
| 7 | – | – | Cc1ncccc1-c1cc2c(Nc3ccc(C4CC4)cc3)ncnc2s1 |
| 8.1 | – | 3.15 ×10⁻⁶ cm/s | Cc1ncccc1-c1cc2ncnc(Nc3ccc(N4CCCC4=O)cc3)c2s1 |
| – | > 10 µM | 4.73 ×10⁻⁶ cm/s | CS(=O)(=O)c1ccc(Nc2ncnc3sc(-c4cccnc4Cl)cc23)cc1 |
| 7.9 | – | 1.33 ×10⁻⁶ cm/s | CS(=O)(=O)c1ccc(Nc2ncnc3cc(-c4cccnc4Cl)sc23)cc1 |
| 5.7 | – | – | COc1ccc(Nc2ncnc3sc(-c4cccnc4C)cc23)cc1 |
| 7.3 | – | 9.95 ×10⁻⁶ cm/s | Cc1ncccc1-c1cc2ncnc(Nc3ccc(C4CC4)cc3)c2s1 |

Further lines, the molecule ahead of its results:

| Structure (SMILES) | pIC50 [1] | IC50 [2] | Papp A→B [3] |
| --- | --- | --- | --- |
| Cc1cnccc1-c1cc2c(Nc3ccc(S(C)(=O)=O)cc3)ncnc2s1 | – | > 10 µM | 3.13 ×10⁻⁶ cm/s |
| Cc1ccncc1-c1cc2c(Nc3ccc(S(C)(=O)=O)cc3)ncnc2s1 | 7.9 | – | 2.45 ×10⁻⁶ cm/s |
| CS(=O)(=O)c1ccc(Nc2ncnc3sc(-c4ccncc4)cc23)cc1 | 7.7 | – | – |
| CSc1ccc(Nc2ncnc3sc(-c4cnoc4)cc23)cc1 | 7.4 | – | – |
| CS(=O)(=O)c1ccc(Nc2ncnc3sc(-c4cccnc4)cc23)cc1 | 7.5 | – | – |
| CSc1ccc(Nc2ncnc3sc(-c4c(C)noc4C)cc23)cc1 | 7.6 | – | – |
| CS(=O)(=O)c1ccc(Nc2ncnc3sc(-c4cn[nH]c4)cc23)cc1 | 7.8 | – | – |
| Cn1cc(-c2cc3c(Nc4ccc(S(C)(=O)=O)cc4)ncnc3s2)cn1 | 7.4 | > 10 µM | 2.88 ×10⁻⁶ cm/s |
| Cc1ncccc1-c1cc2c(Nc3ccc(S(C)(=O)=O)cc3)ncnc2s1 | 7.7 | > 10 µM | 1.33 ×10⁻⁶ cm/s |
| COc1cnccc1-c1cc2c(Nc3ccc(S(C)(=O)=O)cc3)ncnc2s1 | 7.5 | – | – |
| CS(=O)(=O)c1ccc(Nc2ncnc3scc(Cl)c23)cc1 | – | – | 14.2 ×10⁻⁶ cm/s |
| CS(=O)(=O)c1ccc(Nc2ncnc3sc(-c4ccnc(Cl)c4)cc23)cc1 | 7.2 | – | – |
| Cc1ccc(Nc2ncnc3sc(-c4cccnc4C)cc23)cc1C | 5.9 | – | – |
| Cc1cccc(Nc2ncnc3sc(-c4cccnc4C)cc23)c1 | 5.3 | – | – |
| Cc1ccc(Nc2ncnc3sc(-c4cccnc4C)cc23)c(C)c1 | 5.4 | – | – |
